Test results published in patent US10449208B2, “Antiviral prodrugs of tenofovir” (Merck Sharp & Dohme Corp., priority 2016, dated 2019).
pIC50: −log10 of the molar value. Read-outs that look alike come from different tables or passages of the source.

Experiments:
[1] = system: HIV-1 (H9/IIIB strain); test: Multiple round HIV-1 infection assay (Viking assay) in MT4-GFP cells; type: cell-based; details: MT4-GFP cells infected with HIV-1 H9/IIIB, inhibition of reproductive ratio R0
How it was run: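 MT4-gag-GFP cells infected overnight with HIV-1 H9/IIIB at MOI ~0.01, then incubated with compound (10-point 3-fold dilutions, typically 8.4 μM–0.42 nM) in RPMI with 10% or 50% normal human serum. Green cells counted at ~48 and ~72 h; IC50 from inhibition of reproductive ratio R0, 4-parameter fit.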

[2] = Prodrug stability assay in bio-relevant media (FaSSIF with Pancreatin, simulated gastrointestinal tract conditions); type: in vitro ADME; details: % parent prodrug remaining at 5 h vs 0 h, 37° C., 0.5 mg/mL Pancreatin in FaSSIF, HPLC area ratio
Method: Prodrug Stability Assay in Bio-Relevant Media
The following assay was employed to evaluate the stability of the prodrugs in simulated gastrointestinal tract conditions. Preparation of fasted state simulated intestinal fluid (FaSSIF) using Phares SIF Powder was carried out according to protocols from Phare Drug Delivery AG (Baselland, Switzerland). For sample preparation, 10 μL stock solutions (10 mM) of prodrug substance in DMSO was added to 990 μL of 0.5 mg/mL Pancreatin solution (Fisher CAS#8049-47-6) in FaSSIF. Two samples were prepared for each compound at initial. If the sample was clear solution at the beginning, ran one sample directly as initial by HPLC; if the sample was not clear at starting, diluted the sample by 100% ACN. Put the other sample under 37° C. and observed the sample at 5 h time-point. At 5 h time point, if the sample was clear solution then performed HPLC analysis directly; if it was not clear solution, diluted the sample by 100% ACN and assayed by HPLC. All the samples were vortexed for 3 min and observed before injection. For the diluted samples, the area will be multiplied by a factor when data analysis. The analysis was carried out with an Agilent 1100 series HPLC with autosampler. The column was usually a Poroshell 120 EC -C18, 4.6×50 mm, 2.7 μm. The flow rate was 1.8 mL/min, and the injection volume was 5 or 10 μL. UV detection was in the range 210-400 nm. The mobile phase consisted of solvent A (water plus 10 mM tetrabutylammonium bromide) and solvent B (acetonitrile) with a gradient of 90% solvent A at 0 min changing to 95% solvent B over 6 min, maintained for 1.5 min, then reverting to 90% solvent A over 1.6 min. The area of the parent in prodrug at 5h time point was divided by the area of the parent in prodrug at 0 h time point, to generate the % claimed parent ratio, which are summarized in Table 2 for GI Tract stability.

[3] = Human immunodeficiency virus 1, IIIB, 10% normal human serum, read-out: Viking, IC50 (10% NHS)
[4] = Human immunodeficiency virus 1, IIIB, 50% normal human serum, read-out: Viking, IC50 (50% NHS)

Row | GI Tract stability [2] [%] | Structure (SMILES) | pIC50 ([1]; 10% normal human serum, read-out: Viking, IC50 (10% NHS)) | pIC50 ([1]; 50% normal human serum, read-out: Viking, IC50 (50% NHS)) | pIC50 [1, 3] | pIC50 [1, 4]
1 | 95.97 | CCCCCCOC(=O)C(C)(C)NP(=O)(CO[C@H](C)Cn1cnc2c(N)ncnc21)OCC(=O)OC(C)C (single isomer, unassigned) [Example 6A] | – | – | 8.50 | 7.82
2 | 79.24 | CCCOC(=O)C(C)(C)NP(=O)(CO[C@H](C)Cn1cnc2c(N)ncnc21)O[C@@H](C)C(=O)OC(C)C (stereo partly drawn) [Example 22, Propyl 2-((((((R)-1-(6-amino-9H-purin-9-yl)propan-2-yl)oxy)methyl)(((S)-1-isopropoxy-1-oxopropan-2-yl)oxy)phosphoryl)amino)-2-methylpropanoate] | – | – | 8.33 | 7.75

Row | Structure (SMILES) | GI Tract stability [2] [%] | pIC50 ([1]; 10% normal human serum, read-out: Viking, IC50 (10% NHS)) | pIC50 ([1]; 50% normal human serum, read-out: Viking, IC50 (50% NHS)) | pIC50 [1, 3] | pIC50 [1, 4]
3 | CC(C)OC(=O)COP(=O)(CO[C@H](C)Cn1cnc2c(N)ncnc21)NC(C)(C)C(=O)OC(C)C (single isomer, unassigned) [Example 3B] | 95.71 | 7.54 | 7.32 | – | –
